Results published in patent US20180064714A1 (Mylan Laboratories Ltd, priority 2015, published 2018).

Assays:
[1] = Physical and chemical stability on storage, analysed by PXRD for polymorph integrity; assay type: physicochemical
Experimental: The Cu-anode X-ray tube was operated at 40 kV and 30 mA. The experiments were conducted over the 2θ range of 2.0°-50.0°, 0.030° step size and 0.4 seconds step time.
The Cu-anode X-ray tube was operated at 40 kV and 30 mA. The experiments were conducted over the […] of 2.0°-50.0°, 0.030° step size and 0.4 seconds step time.
As used herein, a compound or pharmaceutical composition is considered “stable” where the HPLC purity of the compound or premix changes by less than about 1% when stored at 5° C.±3° C. and/or at 25° C./60% relative humidity (RH). In certain embodiments, the “stable” compound or premix is stored at 5° C.±3° C. In other embodiments, the “stable” compound or premix is stored at 25° C./60% relative humidity (RH).

[2] = cited from earlier work

Row | Initial PXRD analysis ([1]; at 5° C. ± 3° C.) | Initial PXRD analysis ([1]; at 25° C./60% RH) | Initial PXRD analysis ([1]; at 40° C./75% RH) | Structure (SMILES) | Solubility in water [2]
1 | Amorphous | Amorphous | Amorphous | CC[C@H](Nc1ncnc2nc[nH]c12)c1nc2cccc(F)c2c(=O)n1-c1ccccc1 [Amorphous Idelalisib, 5-fluoro-3-phenyl-2-[(1S)-1-(7H-purin-6-ylamino)propyl]-4(3H)-quinazolinone] | –
2 | – | – | – | CC[C@H](Nc1ncnc2[nH]cnc12)c1nc2cccc(F)c2c(=O)n1-c1ccccc1 [Idelalisib, 5-fluoro-3-phenyl-2-[(1S)-1-(7H-purin-6-ylamino)propyl]-4(3H)-quinazolinone] | poorly soluble
